Here are results for two compounds from US20230226133A1, “METHOD FOR EXTRACTING CERAMIDE-CONTAINING MATERIAL OR CERAMIDE FROM WHOLE APPLES AND/OR APPLE JUICE EXTRACTION RESIDUE, AND COMPOSITION INCLUDING SAID CERAMIDE” (priority 2020, published 2023).

Test [1] concerns memory impairment caused by NMDA receptor blocker MK-801. Kind of test: Passive avoidance test in MK-801 dementia model mice. Format: in vivo. The following applies: MK-801 alone, 0.2 mg/kg body weight subcutaneous, DDY mice. The method, then:
In this example, passive avoidance tests using dementia model mice having MK-801 administered thereto were carried out for estimation of effects of the ceramide-containing matter on memory impairments.
More specifically, 7 week old male DDY mice (available from Japan SLC, Inc.) were pre-fed for experimentation. The ceramide-containing matter suspended in an aqueous solution of 0.5% carboxymethyl cellulose sodium (CMC) was orally administrated to the mice once per day in a dose of 100 mg/kg body weight or 500 mg/kg body weight for six days. At the 7th and 8th days from the onset of administration, training and retention trials of passive avoidance testing were carried out. Ninety (90) minutes before the training trial of passive avoidance testing, 100 mg/kg body weight or 500 mg/kg body weight of the ceramide-containing matter or an aqueous solution of solvent 0.5% CMC were orally administrated to the mice, followed by subcutaneous administration of non-competitive NMDA receptor blocker MK-801 (0.2 mg/kg body weight) or a physiological saline solution 60-minute later. Thirty (30) minutes after that, training trial of passive avoidance testing was carried out, and after the elapse of 24 hours, retention testing was carried out. […]

Test [2] has as its system MEK/ERK signaling system in PC-12 cells. The test can be described thus: MEK-ERK signaling system in neural model cells with MEK inhibitor (western blot). Format: cell-based, rat. The following applies: UO126 10 μM added 30 minutes before 30 μg/mL ceramide-containing matter. The method, then: An inhibitor of MEK that was the upstream kinase of extracellular signal-regulated kinase (ERK1/2) was used to make an estimation of the effect of the ceramide-containing matter on the MEK/ERK signaling system in PC-12 cells. The PC-12 cells were cultured in a D-MEM culture medium containing 5% bovine serum and 5% horse serum. The MEK inhibitor UO126 was dissolved in dimethyl-sulfoxide (DMSO), and the resulting solution was added to the cells in such an amount as to give 10 μM, and 30 minutes after that, the ceramide-containing matter dissolved in DMSO was added to the cells in such an amount as to give 30 μg/mL for 10-minute culture. After culture, the cells were collected for estimation of the phosphorylation ERK1/2 (phospho ERK1/2) level important for memory formation by means of the western blot method using anti-phospho ERK1/2 antibody and/or anti-total ERK1/2 antibody. Note here that a sample treated with nobiletin (30 μM) was used as a positive control.
On the technique in general: Immunoblotting shows a protein as a band on a membrane.

Molecules are shown by their SMILES.

With `C[C@]12N[C@H](Cc3ccccc31)c1ccccc12` [MK-801], in test [1], the “reaction latency in retention trial versus solvent control group” value is reported as “significantly lower in the reaction latency”.

With `N#CC(=C(/N)Sc1ccccc1N)/C(C#N)=C(/N)Sc1ccccc1N` [UO126], the “rise of ERK1/2 phosphorylation level caused by the ceramide-containing matter, after MEK inhibitor pretreatment” value in test [2] is on record as “kept low”.
